This is an account of results in the supplement of paper PMC10307832.

Compound in this test: CN(NC(=O)CC(=O)NN(C)C(=S)c1ccccc1)C(=S)c1ccccc1 [Elesclomol] + Cc1nc(NC(=O)N2CCC[C@H]2C(N)=O)sc1-c1ccnc(C(C)(C)C(F)(F)F)c1 [Alpelisib] (partner 2 µM)
Put plainly: relative viability (nuclei count vs DMSO), 5 days (fraction); higher = more cells survive. In short, it runs like this: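 Lung cancer cell lines, seeded in 1536-well plates, were treated the following day by pin tool with a single drug or with five library-drug doses (not always all listed) in √10 steps on top of a fixed anchor-drug dose. Cells were fixed and nuclei stained in one step after 5 days, and nuclei were counted. Relative viability is the nuclei count for treated wells divided by that for vehicle wells, reported as medians of duplicate plates.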

For the cell line EKVX, the relative viability by setting is: (first compound 0.003162 µM) 0.857; (first compound 0.01 µM) 0.369; (first compound 0.03162 µM) 0.328; (first compound 0.1 µM) 0.174.
The like results for HARA were, in that order, 0.803, 0.687, 0.944 and 0.17.
For EMC-BAC-2, in that order: 0.743, 0.649, 0.616 and 0.389.
For PC-14, in that order: 0.913, 0.558, 0.0506 and 0.0344.
For NCI-H520, the relative viability reads like this: (first compound 0.003162 µM) 0.884; (first compound 0.01 µM) 0.667; (first compound 0.03162 µM) 0.563; (first compound 0.1 µM) 0.0734.
For NCI-H1755, in that order: 0.931, 0.9, 0.909 and 0.24.
Consider NCI-H2087, for which the relative viability was 1.2 (first compound 0.003162 µM), 0.701 (first compound 0.01 µM), 0.526 (first compound 0.03162 µM) and 0.566 (first compound 0.1 µM).
In the case of NCI-H2023, the relative viability by setting is: (first compound 0.003162 µM) 0.604; (first compound 0.01 µM) 0.236; (first compound 0.03162 µM) 0.269; (first compound 0.1 µM) 0.074.
As for CAL-12T, the relative viability (first compound 0.003162 µM) came out at 1.19, the relative viability (first compound 0.01 µM) was determined as 0.239, the relative viability (first compound 0.03162 µM) turned out to be 0.312 and the relative viability (first compound 0.1 µM) was 0.0757.
For NCI-H2085, in that order: 0.895, 0.621, 0.555 and 0.286.
In the case of NCI-H650, the relative viability came out at 1.09 (first compound 0.003162 µM), 0.342 (first compound 0.01 µM), 0.271 (first compound 0.03162 µM) and 0.237 (first compound 0.1 µM).
Turning to LCLC-97TM1, the relative viability reads like this: (first compound 0.003162 µM) 0.216; (first compound 0.01 µM) 0.211; (first compound 0.03162 µM) 0.167; (first compound 0.1 µM) 0.104.
The like results for NCI-H2126 were, in that order, 0.719, 0.713, 0.717 and 0.739.
For 201T, in that order: 0.985, 1.02, 1.03 and 0.964.
As for NCI-H1915, the relative viability by setting is: (first compound 0.003162 µM) 1.05; (first compound 0.03162 µM) 1.05; (first compound 0.1 µM) 0.879.
As for BEN, the relative viability (first compound 0.003162 µM) was found to be 0.873, the relative viability (first compound 0.01 µM) amounted to 0.351, the relative viability (first compound 0.03162 µM) was 0.338 and the relative viability (first compound 0.1 µM) was 0.242.
For NCI-H2347, in that order: 1.04, 0.928, 0.955 and 0.513.
H3255: the relative viability runs as follows: (first compound 0.003162 µM) 0.721; (first compound 0.01 µM) 0.473; (first compound 0.03162 µM) 0.348; (first compound 0.1 µM) 0.309.
The like results for NCI-H441 were, in that order, 0.701, 0.624, 0.233 and 0.0722.
The like results for NCI-H2228 were, in that order, 0.569, 0.5, 0.198 and 0.0389.
For NCI-H1975, in that order: 0.646, 0.468, 0.229 and 0.11.
Turning to NCI-H647, the relative viability worked out at 1.12 (first compound 0.003162 µM), 0.998 (first compound 0.01 µM), 0.245 (first compound 0.03162 µM) and 0.017 (first compound 0.1 µM).
For A-427, in that order: 1.04, 1.07, 1.15 and 0.558.
The like results for LXF-289 were, in that order, 1.05, 0.977, 0.979 and 0.686.
For NCI-H727, in that order: 0.545, 0.258, 0.117 and 0.0342.
For NCI-H1437, the relative viability is 0.886 (first compound 0.003162 µM), 0.61 (first compound 0.01 µM), 0.341 (first compound 0.03162 µM) and 0.283 (first compound 0.1 µM).
The like results for RERF-LC-KJ were, in that order, 0.702, 0.352, 0.252 and 0.275.
The like results for NCI-H1792 were, in that order, 0.621, 0.505, 0.718 and 0.858.
Regarding HCC-44, the relative viability is, setting by setting: (first compound 0.003162 µM) 0.812; (first compound 0.01 µM) 0.723; (first compound 0.03162 µM) 0.768; (first compound 0.1 µM) 0.371.
Consider EPLC-272H, for which the relative viability is 1.07 (first compound 0.003162 µM), 0.861 (first compound 0.03162 µM) and 0.249 (first compound 0.1 µM).
On to IA-LM, for which the relative viability was 0.789 (first compound 0.003162 µM), 0.164 (first compound 0.01 µM), 0.076 (first compound 0.03162 µM) and 0.027 (first compound 0.1 µM).
For NCI-H358, in that order: 0.43, 0.163, 0.166 and 0.142.
The like results for NCI-H596 were, in that order, 0.437, 0.472, 0.458 and 0.213.
As to NCI-H322M, the relative viability reads like this: (first compound 0.003162 µM) 0.933; (first compound 0.03162 µM) 0.645; (first compound 0.1 µM) 0.173.
As for NCI-H1563, the relative viability (first compound 0.003162 µM) is 0.687, the relative viability (first compound 0.01 µM) stood at 0.613, the relative viability (first compound 0.03162 µM) was determined as 0.537 and the relative viability (first compound 0.1 µM) stood at 0.527.
